Experimental data published in patent publication US20120302569A1, “PHENYL-THIAZOLYL INHIBITORS OF PRO-MATRIX METALLOPROTEINASE ACTIVATION” (priority 2011, published 2012).

Target: T1, MMP9 mediated gelatinase activity (Rattus norvegicus, UniProt P50282)
T1 construct: from tissue; host or cells: liver cryosections of female Lewis rats
Test: In situ zymography of gelatinase activity in livers of SCW-induced rats
Format: in vivo
Parameters: reduction of liver gelatinase activity: reference not given here
Conditions: for Intensity Mean / Intensity Rat 1 / Intensity Rat 2 / Intensity Rat 3: Day 25-28, liver
Excerpt: In situ zymography provides an alternative approach to assess active MMP9 in tissues (J Histochem Cytochem; 2004; 52:711-722). Tissue sections are overlain with fluorescein-conjugated gelatin wherein the conjugation is sufficiently dense to cause the fluorescein to be dye-quenched (DQ). Proteolytic degradation of the DQ-gelatin releases the fluorescein from the quenching effect giving rise to bright green fluorescence at the site of degradation. Because in situ zymography requires the use of frozen sections, calcified tissues are problematic. However, an additional feature of the SCW arthritis model is the development of hepatic granulomatous disease (J Immunol; 1986; 137:2199-2209), and MMP9 reportedly plays a role in macrophage recruitment in the granulomas response to mycobacteria (Infect Immun; 2006; 74:6135-6144). Consequently, granulomatous livers from SCW-treated rats were assessed for active MMP9 by in situ zymography.
As described above, Female Lewis (LEW/N) rats, 5-6 weeks of age (80-100 g) were injected (i.p.) with saline or SCW PG-PS. On day 28, when the granulomatous response was well established, animals were sacrificed and livers were frozen in OCT cryo-sectioning medium and 10 μm sections were cut on a Cryome HM 500 M cryotome and mounted on glass microscope slides. Sections were air dried briefly. MMP9 was confirmed as the source of the gelatinase activity in the liver by treating liver sections with monoclonal antibodies directed against the active site of the two major gelatinases MMP9 and MMP2. Liver sections overlain with 50 μL of 100 μg/mL neutralizing mouse monoclonal antibodies directed against MMP9 (Calbiochem, clone 6-6B), or MMP2 (Millipore, clone CA-4001), or with PBS for 1 hr at room temperature. Tissues were rinsed once with PBS, blotted, and briefly air dried and then overlain with DQ-gelatin (Invitrogen) dissolved to 1 mg/mL in deionized water and then diluted 1:10 in 1% wt/vol low gelling point agarose type VII (Sigma) in PBS. The sections were covered with coverslips, incubated in the dark at room temperature for 20 min, and imaged on an Olympus IX80 inverted microscope fitted with fluorescence optics, using SlideBook™ imaging software (Intelligent Imaging Innovations, Inc., Philadelphia, Pa.; version 5.0). Fluorescence intensity was determined (Table 8). When compared to a saline-treated rat, gelatinase activity was abundantly expressed in granulomatous liver sections obtained from a rat with SCW arthritis.
Next, liver in situ zymography was used to assess the relative presence of active MMP9 in rats dosed with vehicle vs. Compound α. Female Lewis (LEW/N) rats, 5-6 weeks of age (80-100 g) were injected (i.p.) with saline or SCW PG-PS. Commencing on day 25, randomized groups of rats (n=3 rats/group) received vehicle or 20 or 50 mg/kg Compound α BID by oral gavage.
Vehicle consisted of an aqueous mixture containing 2% (v:v) N-methylpyrrolidone, 5% (v:v) glycerine, and 20% (w:v) captisol. Treatment continued daily through the morning of day 28. Four hrs after the AM dose on day 28, rats were sacrificed and livers assessed for active MMP9 by in situ zymography (Table 9). Gelatinase activity was increased markedly in SCW-induced rats, but activity was reduced by approximately 80% in animals treated with 50 mg/kg Compound α.

T1 sequence (P50282 108-708): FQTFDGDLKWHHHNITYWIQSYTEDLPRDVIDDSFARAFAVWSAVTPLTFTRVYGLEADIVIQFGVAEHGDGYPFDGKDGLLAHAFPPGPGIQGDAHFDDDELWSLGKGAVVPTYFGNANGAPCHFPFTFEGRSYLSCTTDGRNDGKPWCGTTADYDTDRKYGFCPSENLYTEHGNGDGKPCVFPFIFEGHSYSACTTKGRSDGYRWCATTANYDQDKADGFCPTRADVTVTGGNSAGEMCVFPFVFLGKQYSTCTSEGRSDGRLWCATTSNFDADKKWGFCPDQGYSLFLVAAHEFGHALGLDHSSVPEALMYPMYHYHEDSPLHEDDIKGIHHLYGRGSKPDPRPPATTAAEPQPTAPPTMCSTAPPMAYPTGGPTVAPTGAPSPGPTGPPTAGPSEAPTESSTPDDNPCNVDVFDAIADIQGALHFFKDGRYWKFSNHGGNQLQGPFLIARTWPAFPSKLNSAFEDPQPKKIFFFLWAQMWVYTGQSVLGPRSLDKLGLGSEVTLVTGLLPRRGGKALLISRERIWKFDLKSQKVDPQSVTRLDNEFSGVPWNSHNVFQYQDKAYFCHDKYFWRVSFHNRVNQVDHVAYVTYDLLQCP

Q: `Cc1nc(C)c(-c2csc(Nc3cc(S(N)(=O)=O)ccc3OC(C)C)n2)s1` [Compound α, 3-(2′,4′-Dimethyl-[4,5′]bithiazolyl-2-ylamino)-4-isopropoxy-benzenesulfonamide.HBr] was tested. Which “Intensity Mean” value (20 mg/kg BID oral) did it give?
A: Its value is 55.2 RLU × 10^6.

Q: What about the “Intensity Rat 1” value (20 mg/kg BID oral) of the same compound?
A: Its value is 43.0 RLU × 10^6.

Q: And the “Intensity Rat 2” value (20 mg/kg BID oral)?
A: Its value is 69.0 RLU × 10^6.

Q: And the “Intensity Rat 3” value (20 mg/kg BID oral)?
A: The value was 53.7 RLU × 10^6.

Q: What about the “reduction of liver gelatinase activity” value (50 mg/kg BID oral, Day 25-28) of the same compound?
A: The value was “approximately 80%”.

Q: What about the “Intensity Mean” value (50 mg/kg BID oral) of the same compound?
A: The value was 11.1 RLU × 10^6.

Q: And the “Intensity Rat 1” value (50 mg/kg BID oral)?
A: Its value is 3.2 RLU × 10^6.

Q: And the “Intensity Rat 2” value (50 mg/kg BID oral)?
A: Its value is 25.6 RLU × 10^6.

Q: And the “Intensity Rat 3” value (50 mg/kg BID oral)?
A: The value was 4.5 RLU × 10^6.
